Results taken from patent US11077090B2, “Compounds and compositions and uses thereof” (Sunovion Pharmaceuticals Inc., priority 2016, dated 2021).

How the values were obtained:
Adult male AJ mice = assay: Tail suspension test (TST); format: in vivo; design: key: −: No decrease in Mean Total Time Immobile; +: Significant decrease in Mean Total Time Immobile (P < 0.05 vs vehicle)
Text: The tail suspension test (TST) is a rodent screening test for potential (human) antidepressant drugs. It is based on the assumption that an animal will actively try to escape an aversive (stressful) stimulus. If escape is impossible, the animal will eventually stop trying (“give up”). In the TST, a mouse is suspended by the tail so that its body dangles in the air, head downward. Mice initially struggle to face upward and climb to a solid surface. When the animal stops struggling and hangs immobile it is considered to have “given up”. Shorter periods of immobility are characteristic of antidepressant-like activity. Accordingly, longer periods of immobility are considered indicative of a depressive-like state. It has been shown that treatment with an antidepressant drug will decrease the time the animal spends immobile. See generally L. Steru et al., Psychopharmacology (Berl). 1985; 85(3):367-70; B. Thierry et al., Psychopharmacology 1986; 90:284-85.
Adult male AJ mice from Jackson Laboratories received vehicle (sterile water) or test compound orally by gavage, or the positive control desipramine (20 mg/kg, i.p.), in 10 mL/kg injection volumes, 30 min before being subjected to the Tail Suspension Test. In this test, mice are placed in the Tail Suspension chambers (white polyvinylchloride cubicles measuring 33×33×31.75 cm Med Associates, Inc. St. Albans, Vt.) by a piece of transparent (Scotch®) tape attached to the tail, from about the mid-tail, with approximately 2 cm of tape past the end of the tail for 10 min during which the time spent immobile is measured. A reduction in total time immobile relative to the vehicle condition indicates an antidepressant drug-like response.

Male C57Bl/6J mice = assay: Prepulse inhibition of startle (PPI); format: in vivo; design: key: −: No change in PPI; +: Significant increase in PPI at one pre-pulse intensity (P < 0.05 vs vehicle); ++: Significant increase in PPI at two pre-pulse intensities (P < 0.05 vs vehicle); +++: Significant increase in PPI at three pre-pulse intensities (P < 0.05 vs vehicle)
Text: The acoustic startle is an unconditioned reflex response to an external auditory stimulus. Prepulse inhibition of startle (PPI) refers to the reduction in the startle response caused by the presentation of a low-intensity auditory stimulus prior to the startle stimulus. The PPI paradigm is used for the study of schizophrenia and antipsychotic action due to the similarities between the results from human and rodent studies. PPI has been used as a tool for the assessment of deficiencies in sensory-motor gating observed in schizophrenia and to screen for potential antipsychotic drugs. Various psychotomimetic drugs, such as phencyclidine (PCP), can disrupt PPI. In mice, antipsychotic drugs such as haloperidol can increase PPI and clozapine can reverse the disruption of PPI induced by PCP.
Male C57Bl/6J mice from Jackson Laboratories were placed in the PPI chambers (Med Associates) for a 5 min session of white noise (70 dB) habituation. After the habituation period, the test session was initiated. The session started with a habituation block of 6 presentations of the startle stimulus alone, followed by 10 PPI blocks, each of which consisted of 6 different types of trials. Trial types were: ‘null’ (no stimuli), ‘startle’ (120 dB), ‘startle plus prepulse’ (4, 8, and 12 dB over background noise, i.e., 74, 78, or 82 dB) and ‘prepulse’ (82 dB). Trial types were presented in a random order within each block. Each trial started with a 50 ms stimulus-free period during which baseline movements were recorded. This was followed by a subsequent 20 ms period during which the prepulse stimulus was presented and responses to the prepulse measured. After a further 100 ms period, the startle stimulus was presented for 40 ms and responses recorded for 100 ms from startle onset. Responses were sampled every ms. The inter-trial interval was variable with an average of 15 s (range from 10 to 20 s). In ‘startle’ trials, the basic auditory startle response was measured. The basic startle response was calculated as the mean startle response of all ‘startle’ trials (i.e., excluding the first habituation block). In ‘startle plus prepulse’ trials, the degree of inhibition of the normal startle was calculated and expressed as a percentage of the basic startle response.
Mice were treated with vehicle or test compound orally by gavage, or haloperidol (1 mg/kg, i.p.), in 10 mL/kg injection volumes, 30 min prior to PPI test. The PPI enclosures were cleaned following each test. An increase in the percent PPI relative to the vehicle condition indicates an antipsychotic drug-like response.

Row | Compound | Mean Total Time Immobile (Adult male AJ mice; 3 mg/kg PO) | Mean Total Time Immobile (Adult male AJ mice; 10 mg/kg PO) | Mean Total Time Immobile (Adult male AJ mice; 30 mg/kg PO) | Effect on Pre-Pulse Inhibition (PPI) (Male C57Bl/6J mice; 3 mg/kg PO) | Effect on Pre-Pulse Inhibition (PPI) (Male C57Bl/6J mice; 10 mg/kg PO) | Effect on Pre-Pulse Inhibition (PPI) (Male C57Bl/6J mice; 30 mg/kg PO)
1 | N[C@@H]1COCc2ccccc21 (single isomer, unassigned) [Example 111] | − | − | − | − | − | +++
2 | Cc1ccc2c(c1)[C@H](N)COC2 [Example 123] |  | − | − |  | − | −
3 | N[C@@H]1COCc2ccc3ccccc3c21 (single isomer, unassigned) [Example 117] |  | + | − |  | − | +++
4 | Cc1ccc2c(c1)[C@@H](N)COC2 [Example 124] |  | − | − |  | − | −
5 | N[C@H]1COCc2ccc(F)cc21 (single isomer, unassigned) [Example 114] |  | − | + |  | − | −
6 | N[C@H]1COCc2ccc3ccccc3c21 (single isomer, unassigned) [Example 118] |  | − | − |  | − | −
